According to ChEMBL document CHEMBL1143449, “Exploring the connection unit in the HDAC inhibitor pharmacophore model: novel uracil-based hydroxamates” (Bioorg Med Chem Lett, 2005):

How the values were obtained:
[1] = Inhibitory concentration against Histone deacetylase 1A in maize; type: functional, Zea mays
[2] = Inhibitory concentration against Histone deacetylase 1B in maize; type: functional, Zea mays
Histone deacetylase HD2 = target: T1, Histone deacetylase HD2 (Zea mays, UniProt Q94F81); assay: Inhibitory concentration against Histone deacetylase 2 in maize; type: functional
T1 sequence (Q94F81 whole entry): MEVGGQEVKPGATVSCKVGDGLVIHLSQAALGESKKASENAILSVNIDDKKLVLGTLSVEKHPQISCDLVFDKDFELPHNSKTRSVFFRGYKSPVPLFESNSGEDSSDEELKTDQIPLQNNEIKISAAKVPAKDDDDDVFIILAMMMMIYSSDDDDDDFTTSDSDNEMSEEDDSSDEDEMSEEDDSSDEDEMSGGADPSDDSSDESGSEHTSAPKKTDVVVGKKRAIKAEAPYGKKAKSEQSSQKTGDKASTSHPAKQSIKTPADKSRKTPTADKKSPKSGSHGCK

Zea mays [3] = assay: Selectivity of for class II (HD1A) against class I (HD1B) histone deacetylases; type: functional
Zea mays [4] = assay: Selectivity for class I (HD1B) against class II (HD1A) histone deacetylases; type: functional

Row | SMILES | IC50 [1] [nM] | IC50 [2] [nM] | IC50 (Histone deacetylase HD2) [nM] | Selectivity index (Zea mays [3]) | Selectivity index (Zea mays [4])
1 | O=C(CCCCSc1nc(O)cc(Cc2ccccc2)n1)NO | 181 | 130 | 125 |  | 
2 | O=C(CC1CSc2nc(Cc3ccccc3)cc(=O)n21)NO (stereo not drawn) | 38200 | 30200 | 31800 |  | 
3 | O=C(CCSc1nc(O)cc(Cc2ccccc2)n1)NO | 126 | 41 | 38 |  | 3.1
4 | O=C(/C=C/Sc1nc(O)cc(Cc2ccccc2)n1)NO | 13300 | 7400 | 9000 |  | 
5 | O=C(CCCCCSc1nccc(O)n1)NO | 132 | 239 | 213 |  | 
6 | Cc1cc(O)nc(SCCCCCC(=O)NO)n1 | 78 | 112 | 110 |  | 
7 | CCCc1cc(O)nc(SCCCCCC(=O)NO)n1 | 66 | 116 | 135 |  | 
8 | O=C(CCCSc1nc(Cc2ccccc2)cc(=O)[nH]1)NO |  |  | 229 |  | 
9 | O=C(CCCCCCC(=O)Nc1ccccc1)NO [VORINOSTAT] |  | 28 |  |  | 
10 | O=C(CCCSc1nc(O)cc(Cc2ccccc2)n1)NO | 885 | 251 |  |  | 3.5

Second part, led by results:

Row | IC50 [1] [nM] | IC50 [2] [nM] | IC50 (Histone deacetylase HD2) [nM] | SMILES | Selectivity index (Zea mays [3]) | Selectivity index (Zea mays [4])
11 | 64 | 193 | 61 | O=C(CCCCCCCSc1nc(O)cc(Cc2ccccc2)n1)NO | 3 | 
12 | 25 | 48 | 35 | CCc1ccccc1-c1cc(O)nc(SCCCCCC(=O)NO)n1 | 2 | 
13 | 53 | 76 | 37 | O=C(CCCCCCSc1nc(O)cc(Cc2ccccc2)n1)NO |  | 
14 | 0.8 | 0.4 | 7 | O=C(O)[C@@H]1C[C@]2(C(=O)O)C=C[C@@H](O)[C@@H](C2)O1 |  | 2
15 | 6 | 19 | 12 | O=C(CCCCCSc1nc(-c2ccccc2)cc(=O)[nH]1)NO | 3.2 | 
16 | 29 |  | 18 | O=C(CCCCCSc1nc(Cc2ccccc2)cc(=O)[nH]1)NO |  | 
